Laboratory results as given in ChEMBL document CHEMBL1144507, “Synthesis and antifungal activity of (Z)-5-arylidenerhodanines” (2007).
In brackets after ≈: the same amount, converted by molar mass.

Assays:
[1] = test system: Trichophyton benhamiae; assay: Antifungal activity against Trichophyton mentagrophytes C738 after 48 hrs; type: functional, Arthroderma benhamiae
[2] = test system: Candida albicans; assay: Antifungal activity against Candida albicans ATCC 10231 after 48 hrs; type: functional; settings: ATCC 10231, 48 h
[3] = test system: Trichophyton rubrum; assay: Antifungal activity against Trichophyton rubrum C137 after 48 hrs; type: functional
[4] = test system: Aspergillus flavus; assay: Antifungal activity against Aspergillus flavus ATCC 9170 after 48 hrs; type: functional; settings: ATCC 9170, 48 h
[5] = test system: Aspergillus fumigatus; assay: Antifungal activity against Aspergillus fumigatus ATCC 26934 after 48 hrs; type: functional; settings: ATCC 26934, 48 h
[6] = test system: Saccharomyces cerevisiae; assay: Antifungal activity against Saccharomyces cerevisiae ATCC 9763 after 48 hrs; type: functional; settings: ATCC 9763, 48 h
[7] = test system: Trichophyton benhamiae; assay: Antifungal activity against Trichophyton mentagrophytes C539 after 48 hrs; type: functional, Arthroderma benhamiae
[8] = test system: Nannizzia gypsea; assay: Antifungal activity against Microsporum gypseum C115 after 48 hrs; type: functional
[9] = test system: Trichophyton rubrum; assay: Antifungal activity against Trichophyton rubrum C136 after 48 hrs; type: functional
[10] = test system: Trichophyton rubrum; assay: Antifungal activity against Trichophyton rubrum C135 after 48 hrs; type: functional
[11] = test system: Trichophyton benhamiae; assay: Antifungal activity against Trichophyton mentagrophytes ATCC 9972 after 48 hrs; type: functional, Arthroderma benhamiae; settings: ATCC 9972, 48 h
[12] = test system: Trichophyton benhamiae; assay: Antifungal activity against Trichophyton mentagrophytes C364 after 48 hrs; type: functional, Arthroderma benhamiae
[13] = test system: Trichophyton rubrum; assay: Antifungal activity against Trichophyton rubrum C113 after 48 hrs; type: functional
[14] = test system: Aspergillus niger; assay: Antifungal activity against Aspergillus niger ATCC 9029 after 48 hrs; type: functional; settings: ATCC 9029, 48 h
[15] = test system: Trichophyton rubrum; assay: Antifungal activity against Trichophyton rubrum C140 after 48 hrs; type: functional
[16] = test system: Cryptococcus neoformans; assay: Antifungal activity against Cryptococcus neoformans ATCC 32264 after 48 hrs; type: functional; settings: ATCC 32264, 48 h
[17] = test system: Trichophyton rubrum; assay: Antifungal activity against Trichophyton rubrum C110 after 48 hrs; type: functional
[18] = test system: Trichophyton benhamiae; assay: Antifungal activity against Trichophyton mentagrophytes C108 after 48 hrs; type: functional, Arthroderma benhamiae
[19] = test system: Trichophyton benhamiae; assay: Antifungal activity against Trichophyton mentagrophytes C943 after 48 hrs; type: functional, Arthroderma benhamiae
[20] = test system: Trichophyton rubrum; assay: Antifungal activity against Trichophyton rubrum C139 after 48 hrs; type: functional

Q: Which MIC [1] does the source give for O=C1NC(=S)S/C1=C\c1ccccc1C(F)(F)F here?
A: Its MIC is 1.95 µg/mL (≈ 6.74 µM).

Q: And the MIC [2]?
A: The MIC was 250 µg/mL (≈ 864 µM).

Q: What about the MIC [3] of the same compound?
A: The MIC was 1.95 µg/mL (≈ 6.74 µM).

Q: What about the MIC [4] of the same compound?
A: The MIC was > 250 µg/mL.

Q: What about the MIC [5] of the same compound?
A: The MIC was > 250 µg/mL.

Q: What about the MIC [6] of the same compound?
A: Its MIC is 250 µg/mL (≈ 864 µM).

Q: What about the MIC [7] of the same compound?
A: Its MIC is 1.95 µg/mL (≈ 6.74 µM).

Q: And the MIC [8]?
A: Its MIC is 3.9 µg/mL (≈ 13.5 µM).

Q: And the MIC [9]?
A: The MIC was 3.9 µg/mL (≈ 13.5 µM).

Q: What about the MIC [10] of the same compound?
A: Its MIC is 3.9 µg/mL (≈ 13.5 µM).

Q: And the MIC [11]?
A: The MIC was 3.9 µg/mL (≈ 13.5 µM).

Q: And the MIC [12]?
A: Its MIC is 0.97 µg/mL (≈ 3.35 µM).

Q: What about the MIC [13] of the same compound?
A: The MIC was 3.9 µg/mL (≈ 13.5 µM).

Q: And the MIC [14]?
A: Its MIC is > 250 µg/mL.

Q: And the MIC [15]?
A: Its MIC is 3.57 µg/mL (≈ 12.3 µM).

Q: What about the MIC [16] of the same compound?
A: Its MIC is 15.6 µg/mL (≈ 53.9 µM).

Q: What about the MIC [17] of the same compound?
A: Its MIC is 3.9 µg/mL (≈ 13.5 µM).

Q: What about the MIC [18] of the same compound?
A: Its MIC is 1.95 µg/mL (≈ 6.74 µM).

Q: And the MIC [19]?
A: Its MIC is 0.97 µg/mL (≈ 3.35 µM).

Q: What about the MIC [20] of the same compound?
A: Its MIC is 3.9 µg/mL (≈ 13.5 µM).
